The target of series [1] is T1, GCPII (Homo sapiens, UniProt Q04609). Description: dual-stream LC/MS/MS GCPII substrate cleavage (inhibition) assay. It is filed as biochemical. Further details: purchased Sino Biological. The settings on record: for inhibition at 10 µM: read-out: inhibition relative to the DMSO and no enzyme controls; for IC50: follow up screening, triplicate IC50 values ± standard deviation, read-out: IC50 (mass spec assay); for HTS max resp / Max resp (100uM): in % (unit assumed). The method, then:
The novel high-throughput dual-stream liquid chromatography–tandem mass spectrometry method used to screen for this study was recently published ([Hoxie et al., 2024]). Briefly, a 5 μL solution containing recombinant GCPII (SinoBio) in Tris–HCl (pH 7.4) with 1 mM CoCl2 was dispensed using a BioRAPTR 2.0 Flying Reagent Dispenser (Let’s Go Robotics) into 384-well assay plates (Greiner 784,201) pre-spotted with 100 nL of compound in DMSO using an Echo 655 Acoustic Liquid Handler (Beckman). Enzyme and compound were incubated for 15 min prior to the addition of 5 μL of ^13C5 ^15N-acetylaspartylglutamate (Aldrich). After 30 min s at room temperature, reactions were quenched using 0.2 μM D3-glutamate in LC/MS-grade acetonitrile and 0.1% formic acid. A 2-min liquid chromatography method utilizing a 2.1 × 30 mm BEH Amide HILIC column (Waters) was used to resolve glutamate from NAA and NAAG. A Sciex 6,500+ Q-Trap mass spectrometer was utilized for MS/MS quantification of released glutamate in the presence of compound. The integrated peak areas were normalized against the d3-glutamate internal standard, and then degree of inhibition was calculated using replicates containing no enzyme and enzyme with equivalent volumes of DMSO. Compounds were initially screened in a 10 μL reaction volume with 10 μM (final) compound dissolved in DMSO. […] To further increase throughput and the efficiency of screening, LC/MS analysis of libraries was conducted in dual-stream mode on an LS-1 autosampler (Sound Analytics).

The target of series [2] is T2, human rGCPII (Homo sapiens, UniProt Q04609).
T2 construct: purchased Sino Biological
The series is described as follows: orthogonal radioenzymatic GCPII inhibition assay (3H-NAAG). Format: biochemical. The following applies: NAA[3H]G 30 nM, GCPII 40 pM, 37 °C, 25 min. The method, then:
Radioenzymatic assay using ^3H-NAAG was performed as previously described ([Barinka et al., 2002]). Briefly, a 50 μL reaction mixture containing NAA [^3H]G (30 nM, 49 μCi/nmol) and GCPII (40 pM), in Tris-HCl (pH 7.4, 40 mM) with 1 mM CoCl2 was incubated at 37 °C for 25 min and stopped with 50 μL ice-cold sodium phosphate buffer (pH 7.5, 0.1 M). AG1X8 ion-exchange resin was used to separate cleaved [^3H]glutamate, and the flowthrough was transferred to solid scintillator-coated 96-well plates (Packard) and allowed to dry. Radioactivity was measured by a Topcount NXT from Packard. Each compound was run in duplicate, and 6–8-point dose-response curves were generated.

The test system of series [3] is GCPII. The following applies: prior art compound, value given when selected for assay validation; no reference given; cited from earlier work.
The target in series [4] is T3, recombinant human (rh) GCPII (Homo sapiens, UniProt Q04609).
T3 construct: purchased Sino Biological
The series is described as follows: nanoDSF thermal shift assay. Format: binding. The settings on record: for shift in Tm (Δ): compound at 25 μM, vs DMSO; for Tm of GCPII in the presence of compound: compound at 250 μM, DMSO Tm 78.93 °C. The protocol: nanoDSF experiments were performed to assess the thermal stability of GCPII in the presence of various inhibitors. Protein samples were prepared at a concentration of 0.15 mg/mL in 50 mM Tris-HCl (pH 7.4), 1 mM CoCl2, 150 mM NaCl, and 0.01% Tween-20. Samples were incubated at 25 °C for 30 min prior to measurement with shaking at 1,000 rpm. Thermal unfolding was monitored using a Prometheus Panta nanoDSF instrument using standard capillaries (NanoTemper Technologies). The intrinsic fluorescence at 350 nm and 330 nm was recorded as a function of temperature, and the fluorescence ratio (350/330 nm) and its first derivative were used to track protein unfolding. A thermal gradient from 25 °C to 95 °C was applied at a rate of 0.5 °C per minute. The melting temperature (Tm) was determined from the global maximum of the first derivative of the fluorescence ratio curve. Each condition was tested in at least three independent replicates, and data was analyzed using PR. ThermControl software (NanoTemper Technologies). One-way ANOVA with multiple comparisons to the DMSO vehicle control group was used to determine significant shifts from the control thermal unfolding profile.
In general terms: DSF heats the sample and reads unfolding from a dye or from intrinsic fluorescence.

The target in series [5] is T1, GCPII. Description: mode of inhibition study (radioenzymatic assay, varied NAA[3H]G, Michaelis-Menten analysis). The following applies: for Ki: Ki (secondary plot Km app/Vmax vs [inhibitor], −X intercept), 40 pM GCPII; for mode of inhibition: NAAG as substrate.
Description: The mode of inhibition was also determined as previously described following the same procedure as the radioenzymatic-based IC50 assay but with modification of the concentrations of NAA [^3H]G. ([Barinka et al., 2002]). […] A Michaelis-Menten kinetics analysis was done to determine the Km and Vmax at each inhibitor concentration.
The nature of series [6]: pharmacokinetic and brain penetration study in mice. Format: in vivo. The following applies: 100 mg/kg IP, C57BL/6 mice. The protocol:
Pharmacokinetic studies in mice were approved by the Animal Care and Use Committee at Johns Hopkins University. Male C57BL/6 mice (25–30 g) were housed under a 12-h light-dark cycle with ad libitum access to food and water. Cefsulodin was administered intraperitoneally (IP) at a dosage of 100 mg/kg prepared freshly (5% DMSO and 95% HEPES saline v/v) with a dosing volume of 10 mL/kg. Blood and brain tissue samples were collected at 0.083–3 h post-administration (n = 3 per time point). Blood was obtained via cardiac puncture, and plasma was separated by low-speed centrifugation at 3,000 × g for 15 min and stored at −80 °C. Brain tissues were harvested, and immediately frozen in liquid nitrogen, and stored at −80 °C until analyses.
As cefsulodin is known to be unstable, plasma and brain tissue samples were prepared with the addition of 2% formic acid in water to adjust the pH to 5 ([Lecaillon et al., 1982]). For quantification of cefsulodin, plasma samples were diluted 10-fold with blank plasma, and a total of 40 μL of plasma was extracted using a protein precipitation method by adding methanol containing the internal standard (diclofenac, 1 μM). The mixture was vortex-mixed for 30 s and centrifuged at 14,000 rpm for 5 min at 4 °C. Brain tissues were homogenized in methanol at a 1:5 (w/v) ratio. A 50 μL aliquot of the homogenate was precipitated with methanol containing the internal standard, vortex-mixed, and centrifuged at 14,000 rpm for 5 min at 4 °C. A 150 μL aliquot of the supernatant was transferred to a polypropylene vial sealed with a Teflon cap and analyzed by liquid chromatography with tandem mass spectrometric methods (LC-MS/MS) as described below.
Cefsulodin concentrations in mouse plasma and brain were measured using a Shimadzu Nexera X2 LC-40D system (Shimadzu Corporation, Kyoto, Japan) coupled with an API 6500 triple quadrupole mass spectrometer (AB Sciex, Redwood City, CA, United States). […] Quantitation was performed in multiple reaction monitoring (MRM) mode using cefsulodin (533.03 > 123.03) and diclofenac as the internal standard (296.13 > 215.03) ([Zhou et al., 2024]; [Park et al., 2024]). Calibration curves were constructed over the range of 0.01–100 nmol/mL or nmol/g for plasma and brain, respectively.
Plasma concentrations (nmol/mL) and brain concentrations (nmol/g) were determined, and mean concentration-time profiles were plotted for pharmacokinetic analysis. Non-compartmental analysis was performed using the Phoenix WinNonlin software version 8.4 (Certara United States, Inc., Princeton, NJ) to calculate pharmacokinetic parameters, including the maximum concentration (Cmax), time to Cmax (Tmax), and area under the concentration-time curve (AUC0–t).

The mark [7] stands for this setting: library screening, seven-point dose response, read-out: AC50.
Where [8] appears, read: maximum response at 100uM, dose response.

Where “and” joins values, the source holds several entries; their conditions need not be identical. Equal entries are not always repeated. Where two headings read alike, the source gives them in different places.

T2 sequence (Q04609 whole entry): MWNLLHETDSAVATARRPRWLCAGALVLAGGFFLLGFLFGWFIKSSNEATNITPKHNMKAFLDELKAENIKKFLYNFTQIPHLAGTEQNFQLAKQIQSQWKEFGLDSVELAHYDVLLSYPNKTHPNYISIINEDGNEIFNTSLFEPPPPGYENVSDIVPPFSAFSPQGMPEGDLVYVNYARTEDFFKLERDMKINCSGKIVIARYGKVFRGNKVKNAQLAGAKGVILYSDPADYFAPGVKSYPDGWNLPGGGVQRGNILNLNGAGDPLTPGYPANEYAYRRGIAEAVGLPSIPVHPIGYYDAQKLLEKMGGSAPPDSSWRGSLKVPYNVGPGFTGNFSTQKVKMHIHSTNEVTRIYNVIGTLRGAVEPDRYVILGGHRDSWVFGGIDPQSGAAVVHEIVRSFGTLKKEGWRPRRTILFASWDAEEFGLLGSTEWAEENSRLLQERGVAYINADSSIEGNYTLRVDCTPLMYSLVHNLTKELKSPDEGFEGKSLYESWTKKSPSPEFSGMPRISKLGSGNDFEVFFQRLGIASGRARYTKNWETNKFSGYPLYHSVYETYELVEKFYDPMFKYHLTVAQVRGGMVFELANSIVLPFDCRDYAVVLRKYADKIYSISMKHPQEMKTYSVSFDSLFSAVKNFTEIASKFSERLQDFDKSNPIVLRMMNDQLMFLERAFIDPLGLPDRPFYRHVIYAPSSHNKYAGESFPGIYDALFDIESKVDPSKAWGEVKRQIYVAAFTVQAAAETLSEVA
T1 sequence (Q04609 whole entry): as above
T3 sequence (Q04609 whole entry): as above

`Nc1nc(=O)c2nc(CNc3ccc(C(=O)N[C@@H](CCC(=O)O)C(=O)O)cc3)cnc2[nH]1` [Folic Acid]: the inhibition (commonly how much of the control response was suppressed) at 10 µM in series [1] (single point screen at 10 µM) was at least 50%.

On to `Cc1cc(-c2ccc(/N=N/c3c(S(=O)(=O)O)cc4cc(S(=O)(=O)O)cc(N)c4c3O)c(C)c2)ccc1/N=N/c1c(S(=O)(=O)O)cc2cc(S(=O)(=O)O)cc(N)c2c1O` [Trypan blue], for which the IC50 (usually the concentration needed to halve the response being measured) in series [2] turned out to be 210 ± 50 nM; in series [1] it was 2100 ± 400 nM.

Regarding `CN(Cc1cnc2nc(N)nc(N)c2n1)c1ccc(C(=O)N[C@@H](CCC(=O)O)C(=O)O)cc1` [Methotrexate], in series [1] (single point screen at 10 µM), the inhibition at 10 µM is at least 50%.

With `CC1(C)C(/C=C/C=C/C=C/C=C2\N(CCCCS(=O)(=O)O)c3ccc4ccccc4c3C2(C)C)=[N+](CCCCS(=O)(=O)[O-])c2ccc3ccccc3c21` [Indocyanine green], the concentration for half-maximal inhibition (IC50) in series [2] was found to be 1900 ± 300 nM; in series [1] it was 11000 ± 200 nM.

Regarding `O=C(O)C1=C(CSc2nnnn2CS(=O)(=O)O)CS[C@@H]2[C@H](NC(=O)[C@H](O)c3ccccc3)C(=O)N12` [Cefonicid sodium], the IC50 in series [2] turned out to be 4900 ± 2000 nM; in series [1], 32000 ± 2000 nM.

Regarding `N[C@@H](Cn1oc(=O)[nH]c1=O)C(=O)O` [L-Quisqualic acid], in series [3], the IC50 is 10000 nM. For the same compound, in series [1], half-maximal activity (AC50) was put at 7900 nM, the HTS max resp is −93.07, the “Max resp (100uM)” value is on record as −91.35 and the inhibition at 10 µM was at least 50%.

With `CO[C@@]1(NC(=O)C2SC(=C(C(N)=O)C(=O)O)S2)C(=O)N2C(C(=O)O)=C(CSc3nnnn3C)CS[C@@H]21` (stereo partly shown) [Cefotetan], the IC50 in series [2] turned out to be 2000 ± 1000 nM; in series [1] it was 9700 ± 3000 nM.

In the case of `NCc1ccccc1CC(=O)N[C@@H]1C(=O)N2C(C(=O)O)=C(CSc3nnnn3CC(=O)O)CS[C@H]12` [Ceforanide], the IC50 worked out at 14000 ± 6000 nM in series [2] and 29000 ± 400 nM in series [1].

Regarding `O=S(=O)(O)c1ccc2c(/N=N/c3ccc(S(=O)(=O)O)c4ccccc34)c(O)c(S(=O)(=O)O)cc2c1` [Amaranth], in series [4], the “shift in Tm (Δ)” value was found to be 0.76 °C. Besides, in series [2], the half-maximal inhibitory concentration (IC50) was determined as 300 ± 10 nM. The IC50 in series [1] turned out to be 1500 ± 300 nM. The AC50 – broadly, the concentration at which the activity in the assay is half-maximal – in series [1] (setting [7]) was determined as 2500 nM. Besides, the “Max resp (100uM)” value in series [1] (setting [8]) is recorded as −101.68. In series [1] (primary high-throughput screen), this compound registered an HTS max resp of −101.93. Further, in series [5], the Ki was determined as 1100 ± 60 nM and the mode of inhibition entry was “non-competitive inhibition”.

For the compound `O=C(O)CCC(CP(=O)(O)O)C(=O)O` (stereo not shown) [2-PMPA, 2-(phosphonomethyl)pentanedioic acid], the “Tm of GCPII in the presence of compound” value in series [4] was 90.70 °C. Also, in series [3], the IC50 was […]. In addition, the “Max resp (100uM)” value in series [1] (setting [8]) was −98.19. Also, in series [1] (primary high-throughput screen), the HTS max resp was −100.00. In addition, the inhibition at 10 µM in series [1] (single point screen at 10 µM) was at least 50%.

Regarding `NC(=O)c1cc[n+](CC2=C(C(=O)O)N3C(=O)[C@@H](NC(=O)[C@@H](c4ccccc4)S(=O)(=O)[O-])[C@H]3SC2)cc1` [Cefsulodin], the “shift in Tm (Δ)” value in series [4] was 0.65 (±0.07) °C. In series [2], this compound returned an IC50 of 2000 ± 100 nM. For the same compound, the brain penetration index result in series [6] is listed as “low”. Moreover, in series [6] (brain), the “brain Cmax” value is 4 µM and 4.9 µM; the “brain exposure (AUC)” value was 4.36 ± 1.12 nmol·h/g. The “time of brain Cmax” value in series [6] (brain, post-dose) stood at 30 min. The IC50 in series [1] turned out to be 3600 ± 300 nM. Also, the AC50 in series [1] (setting [7]) was found to be 3900 nM. For the same compound, the “Max resp (100uM)” value in series [1] (setting [8]) is recorded as −98.19. For the same compound, in series [1] (primary high-throughput screen), the HTS max resp is −92.18. In addition, in series [5], the Ki is 2500 nM and 2000 nM; the mode of inhibition result was “competitive, active-site inhibition”.

Turning to `O=C(O)CCC(CCCS)C(=O)O` (stereo not shown) [2-MPPA, 2-(3-mercaptopropyl)pentanedioic acid], in series [4], the “Tm of GCPII in the presence of compound” value turned out to be 79.25 °C. The IC50 in series [3] was 90 nM. In addition, the “Max resp (100uM)” value in series [1] (setting [8]) was −96.75. For the same compound, the HTS max resp in series [1] (primary high-throughput screen) is −100.00. For the same compound, the inhibition at 10 µM in series [1] (single point screen at 10 µM) is at least 50%.

`O=C1OC(c2ccc(O)c(S(=O)(=O)O)c2)(c2ccc(O)c(S(=O)(=O)O)c2)c2c(Br)c(Br)c(Br)c(Br)c21` [Sulfobromophthalein]: the values for the IC50 in series [2] and in series [1] were 230 ± 100 nM and 400 ± 100 nM, respectively.

The record behind these values is paper PMC12568586, “Mass spectrometry-guided discovery of novel GCPII inhibitor scaffolds” (Frontiers in Pharmacology, 2025).
